US9617258B2, “Pyrrolo[2,3-d]pyrimidinyl, pyrrolo[2,3-b]pyrazinyl and pyrrolo[2,3-d]pyridinyl acrylamides” (Pfizer Inc., priority 2013, dated 2017)

assay: Stability of JAK3 covalent inhibitors in human whole blood; type: in vitro ADME; conditions: both sexes, whole blood, 37° C., read-out: Human blood stability t1/2;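 also: parent compound remaining over incubation time quantified by LC-MS/MS as peak area ratio against an internal standard, using pooled K2-EDTA blood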

Row | half-life at 1 μM | Structure (SMILES)
1 | > 5.83 h | C=CC(=O)N1CCC(Nc2cnc3[nH]cc(C(=O)NC(C)C)c3n2)CC1 [Example 168, 2-[(1-acryloylpiperidin-4-yl)amino]-N-(propan-2-yl)-5H-pyrrolo[2,3-b]pyrazine-7-carboxamide]
2 | > 6 h | C=CC(=O)N(C)C1CN(c2cnc3[nH]cc(C(=O)NC(C)C)c3n2)C1 [Example 187, 2-{3-[acryloyl(methyl)amino]azetidin-1-yl}-N-(propan-2-yl)-5H-pyrrolo[2,3-b]pyrazine-7-carboxamide]
3 | > 6 h | C=CC(=O)N1CCC(Nc2cnc3[nH]cc(-c4ccc(F)nc4)c3n2)CC1 [Example 207, 1-(4-{[7-(6-fluoropyridin-3-yl)-5H-pyrrolo[2,3-b]pyrazin-2-yl]amino}piperidin-1-yl)prop-2-en-1-one]
4 | > 6 h | C=CC(=O)N1CCC(Oc2cnc3[nH]cc(-c4ccnc(C)c4)c3n2)CC1 [Example 220, 1-(4-{[7-(2-methylpyridin-4-yl)-5H-pyrrolo[2,3-b]pyrazin-2-yl]oxy}piperidin-1-yl)prop-2-en-1-one]
5 | 3.63 h | C=CC(=O)N1CCC(Nc2cnc3[nH]cc(C(=O)NCC(F)(F)F)c3n2)CC1 [Example 273, 2-[(1-acryloylpiperidin-4-yl)amino]-N-(2,2,2-trifluoroethyl)-5H-pyrrolo[2,3-b]pyrazine-7-carboxamide]
6 | > 6 h | C=CC(=O)N1CC[C@@H](Nc2cnc3[nH]cc(C(=O)NC(C)C)c3n2)[C@H](O)C1 [Example 196, 2-{[(3R,4R)-1-acryloyl-3-hydroxypiperidin-4-yl]amino}-N-(propan-2-yl)-5H-pyrrolo[2,3-b]pyrazine-7-carboxamide]
7 | 2.38 h | C=CC(=O)N1CC2CCN(c3cnc4[nH]cc(C(=O)NC(C)C)c4n3)C2C1 (stereo not shown) [Example 178, 2-(5-acryloylhexahydropyrrolo[3,4-b]pyrrol-1(2H)-yl)-N-(propan-2-yl)-5H-pyrrolo[2,3-b]pyrazine-7-carboxamide]
8 | 5.87 h | C=CC(=O)N1CCC(C)(Nc2cnc3[nH]cc(C(=O)NC(C)C)c3n2)CC1 [Example 318, 2-[(1-acryloyl-4-methylpiperidin-4-yl)amino]-N-(propan-2-yl)-5H-pyrrolo[2,3-b]pyrazine-7-carboxamide]
9 | > 5.17 h | C=CC(=O)N1CCC(Nc2cnc3[nH]cc(C(=O)NC[C@H](C)CC(F)(F)F)c3n2)CC1 [Example 241, 2-[(1-acryloylpiperidin-4-yl)amino]-N-[(2R)-4,4,4-trifluoro-2-methylbutyl]-5H-pyrrolo[2,3-b]pyrazine-7-carboxamide]
10 | > 6 h | C=CC(=O)N1CCN(c2cnc3[nH]cc(C(=O)NC(C)C)c3n2)CC1(C)C [Example 293, 2-(4-acryloyl-3,3-dimethylpiperazin-1-yl)-N-(propan-2-yl)-5H-pyrrolo[2,3-b]pyrazine-7-carboxamide]
11 | > 6 h | C=CC(=O)N1CC[C@H](Nc2cnc3[nH]cc(C(=O)NC(C)C)c3n2)[C@H](OC)C1 [Example 317, 2-{[(3R,4S)-1-acryloyl-3-methoxypiperidin-4-yl]amino}-N-(propan-2-yl)-5H-pyrrolo[2,3-b]pyrazine-7-carboxamide]
12 | 3.78 h | C=CC(=O)N1CCC(Oc2cnc3[nH]cc(C(=O)NC(C)C)c3n2)CC1 [Example 339, 2-((1-Acryloylpiperidin-4-yl)oxy)-N-isopropyl-5H-pyrrolo[2,3-b]pyrazine-7-carboxamide]
13 | > 6 h | C=CC(=O)N[C@H]1C[C@H](Nc2cnc3[nH]cc(C(=O)NC(C)C)c3n2)C1 [Example 198, 2-{[trans-3-(acryloylamino)cyclobutyl]amino}-N-(propan-2-yl)-5H-pyrrolo[2,3-b]pyrazine-7-carboxamide]
14 | 5.77 h | C=CC(=O)N1CCC(Nc2cnc3[nH]cc(C(=O)NC45CC(C4)C5)c3n2)CC1 [Example 281, 2-[(1-acryloylpiperidin-4-yl)amino]-N-(bicyclo[1.1.1]pent-1-yl)-5H-pyrrolo[2,3-b]pyrazine-7-carboxamide]
15 | 1.6 h | C=CC(=O)N1CC(Nc2cnc3[nH]cc(C(=O)NC(C)C)c3n2)C1 [Example 188, 2-[(1-acryloylazetidin-3-yl)amino]-N-(propan-2-yl)-5H-pyrrolo[2,3-b]pyrazine-7-carboxamide]
16 | 3.35 h | C=CC(=O)N1CCC(Nc2cnc3[nH]cc(C(=O)N[C@@H]4CCC[C@@H]4F)c3n2)CC1 [Example 251, 2-[(1-acryloylpiperidin-4-yl)amino]-N-[(1R,2S)-2-fluorocyclopentyl]-5H-pyrrolo[2,3-b]pyrazine-7-carboxamide]
17 | 5.68 h | C=CC(=O)N1CCN(c2cnc3[nH]cc(C(=O)NC(C)C)c3n2)C[C@@H]1CC(C)C [Example 303, 2-[(3S)-4-acryloyl-3-(2-methylpropyl)piperazin-1-yl]-N-(propan-2-yl)-5H -pyrrolo[2,3-b]pyrazine-7-carboxamide]
18 | 4.16 h | C=CC(=O)N1CCN(c2cnc3[nH]cc(C(=O)NC(C)C)c3n2)CC1 [Example 174, 2-(4-acryloylpiperazin-1-yl)-N-(propan-2-yl)-5H-pyrrolo[2,3-b]pyrazine-7-carboxamide]
19 | > 6 h | C=CC(=O)N1CCC(Nc2cnc3[nH]cc(-c4ccnc(C)c4)c3n2)CC1 [Example 201, 1-(4-{[7-(2-methylpyridin-4-yl)-5H-pyrrolo[2,3-b]pyrazin-2-yl]amino}piperidin-1-yl)prop-2-en-1-one]
20 | 3.27 h | C=CC(=O)N1CC[C@@H](Nc2cnc3[nH]cc(C(=O)NC(C)C)c3n2)[C@H](F)C1 [Example 291, 2-{[(3R,4R)-1-acryloyl-3-fluoropiperidin-4-yl]amino}-N-(propan-2-yl)-5H-pyrrolo[2,3-b]pyrazine-7-carboxamide]

More lines, now with the values behind:

Row | Structure (SMILES) | half-life at 1 μM
21 | C=CC(=O)N1C[C@@H](O)C[C@@H](Nc2ncnc3[nH]cc(Cl)c23)C1 [Example 162, 1-{(3R,5S)-3-[(5-Chloro-7H-pyrrolo[2,3-d]pyrimidin-4-yl)amino]-5-hydroxypiperidin-1-yl}prop-2-en-1-one] | > 6 h
22 | C=CC(=O)N1CC[C@H](C)[C@@H](Nc2ncnc3[nH]ccc23)C1 (racemic) [Example 50, 1-[(3R,4S)-4-methyl-3-(7H-pyrrolo[2,3-d]pyrimidin-4-ylamino)piperidin-1-yl]prop-2-en-1-one] | > 6 h
23 | C=CC(=O)N1CCC[C@@H](Nc2ccnc3[nH]cc(C)c23)C1 [Example 47, 1-{(3R)-3-[(3-methyl-1H-pyrrolo[2,3-b]pyridin-4-yl)amino]piperidin-1-yl}prop-2-en-1-one] | 5.26 h
24 | C=CC(=O)N1CCC[C@@H](Nc2ncnc3[nH]cc(-c4ccc(OCC)nc4)c23)C1 [Example 33, 1-[(3R)-3-{[5-(6-ethoxypyridin-3-yl)-7H-pyrrolo[2,3-d]pyrimidin-4-yl]amino}piperidin-1-yl]prop-2-en-1-one] | > 6 h
25 | C=CC(=O)N1C[C@H](C)C[C@@H](Nc2ncnc3[nH]ccc23)C1 (racemic) [Example 65, Rac-1-((3R,5R)-3-((7H-Pyrrolo[2,3-d]pyrimidin-4-yl)amino)-5-methylpiperidin-1-yl)prop-2-en-1-one] | 4.45 h
26 | C=CC(=O)N1CC[C@H](C)[C@@H](Nc2ncnc3[nH]ccc23)C1 [Example 11, 1-((3R,4S)-3-((7H-pyrrolo[2,3-d]pyrimidin-4-yl)amino)-4-methylpiperidin-1-yl)prop-2-en-1-one] | > 4.93 h
27 | C=CC(=O)N1C[C@H](F)C[C@@H](Nc2ncnc3[nH]ccc23)C1 [Example 10, 1-((3R,5R)-3-((7H-pyrrolo[2,3-d]pyrimidin-4-yl)amino)-5-fluoropiperidin-1-yl)prop-2-en-1-one] | 2.72 h
28 | C=CC(=O)N1CC[C@H](F)[C@@H](Nc2ncnc3[nH]ccc23)C1 [Example 4, 1-((3S,4S)-3-((7H-pyrrolo[2,3-d]pyrimidin-4-yl)amino)-4-fluoropiperidin-1-yl)prop-2-en-1-one] | 2.33 h
29 | C=CC(=O)N1CCC[C@@H](Nc2ncnc3[nH]cc(-c4cnn(C)c4)c23)C1 [Example 28, 1-[(3R)-3-{[5-(1-methyl-1H-pyrazol-4-yl)-7H-pyrrolo[2,3-d]pyrimidin-4-yl]amino}piperidin-1-yl]prop-2-en-1-one] | > 6 h
30 | C=CC(=O)N1CCCC(C)(Nc2ncnc3[nH]ccc23)C1 (stereo not shown) [Example 71, 1-(3-((7H-Pyrrolo[2,3-d]pyrimidin-4-yl)amino)-3-methylpiperidin-1-yl)prop-2-en-1-one] | 3.82 h
31 | C=CC(=O)N1C[C@H](Nc2ncnc3[nH]ccc23)CC[C@@H]1CC (single isomer, unassigned) [Example 9] | > 6 h
32 | C=CC(=O)N1C[C@H](Nc2ncnc3[nH]ccc23)C[C@@H](N(C)C)C1 [Example 88, 1-[(3R,5R)-3-(Dimethylamino)-5-(7H-pyrrolo[2,3-d]pyrimidin-4-ylamino)piperidin-1-yl]prop-2-en-1-one] | 1.23 h
33 | C=CC(=O)N1CC[C@@H](F)[C@@H](Nc2ncnc3[nH]ccc23)C1 [Example 54, 1-((3S,4R)-3-((7H-pyrrolo[2,3-d]pyrimidin-4-yl)amino)-4-fluoropiperidin-1-yl)prop-2-en-1-one] | 3.5 h
34 | C=CC(=O)N1CCC[C@@H](Nc2ncnc3[nH]cc(-c4cccnc4)c23)C1 [Example 26, 1-[(3R)-3-{[5-(pyridin-3-yl)-7H-pyrrolo[2,3-d]pyrimidin-4-yl]amino}piperidin-1-yl]prop-2-en-1-one] | > 6 h
35 | C=CC(=O)N1C[C@@H](C)C[C@@H](Nc2ncnc3[nH]ccc23)C1 (single isomer, unassigned) [Example 14] | > 4.18 h
36 | O=C(/C=C/C(F)(F)F)N1CC[C@@H]2CCN(c3ncnc4[nH]ccc34)[C@@H]2C1 [Example 81, (2E)-4,4,4-trifluoro-1-[(3aS,7aS)-1-(7H-pyrrolo[2,3-d]pyrimidin-4-yl)octahydro-6H-pyrrolo[2,3-c]pyridin-6-yl]but-2-en-1-one] | 0.282 h
37 | C#Cc1c[nH]c2ncnc(N3CC[C@H]4CCN(C(=O)C=C)C[C@H]43)c12 [Example 48, 1-[(3aS,7aS)-1-(5-ethynyl-7H-pyrrolo[2,3-d]pyrimidin-4-yl)octahydro-6H-pyrrolo[2,3-c]pyridin-6-yl]prop-2-en-1-one] | 2.5 h
